System: HCV replicon (wild type NS3-NS5B regions of HCV type 1b) in Huh-7 luc/neo cells
Assay: HCV replicon assay (Huh-Luc cells, luciferase read-out)
Format: cell-based
Details: Hepatitis C virus, Huh-7, 72 h, three days incubation, luciferase activity
Excerpt: The in vitro antiviral activity against HCV of the compounds of formula I can be tested in a cellular HCV replicon system based on Lohmann et al. (1999) Science 285:110-113, with the further modifications described by Krieger et al. (2001) Journal of Virology 75: 4614-4624 (incorporated herein by reference), which is further exemplified in the examples section. This model, while not a complete infection model for HCV, is widely accepted as the most robust and efficient model of autonomous HCV RNA replication currently available. It will be appreciated that it is important to distinguish between compounds that specifically interfere with HCV functions from those that exert cytotoxic or cytostatic effects in the HCV replicon model, and as a consequence cause a decrease in HCV RNA or linked reporter enzyme concentration. Assays are known in the field for the evaluation of cellular cytotoxicity based for example on the activity of mitochondrial enzymes using fluorogenic redox dyes such as resazurin. Furthermore, cellular counter screens exist for the evaluation of non-selective inhibition of linked reporter gene activity, such as firefly luciferase. Appropriate cell types can be equipped by stable transfection with a luciferase reporter gene whose expression is dependent on a constitutively active gene promoter, and such cells can be used as a counter-screen to eliminate non-selective inhibitors.
The compounds of formula (I) were examined for inhibitory activity in the HCV replicon. This cellular assay is based on a bicistronic expression construct, as described by Lohmann et al. (1999) Science vol. 285 pp. 110-113 with modifications described by Krieger et al. (2001) Journal of Virology 75: 4614-4624, in a multi-target screening strategy.
In essence, the method was as follows:
The assay utilized the stably transfected cell line Huh-7 luc/neo (hereafter referred to as Huh-Luc). This cell line harbors an RNA encoding a bicistronic expression construct comprising the wild type NS3-NS5B regions of HCV type 1b translated from an Internal Ribosome Entry Site (IRES) from encephalomyocarditis virus (EMCV), preceded by a reporter portion (FfL-luciferase), and a selectable marker portion (neo^R, neomycine phosphotransferase). The construct is flanked by 5′ and 3′ NTRs (non-translated regions) from HCV type 1b. Continued culture of the replicon cells in the presence of G418 (neo^R) is dependent on the replication of the HCV RNA. The stably transfected replicon cells that express HCV RNA, which replicates autonomously and to high levels, encoding inter alia luciferase, were used for screening the antiviral compounds.
The replicon cells were plated in 384 well plates in the presence of the test and control compounds which were added in various concentrations. Following an incubation of three days, HCV replication was measured by assaying luciferase activity (using standard luciferase assay substrates and reagents and a Perkin Elmer ViewLux™ ultraHTS microplate imager). Replicon cells in the control cultures have high luciferase expression in the absence of any inhibitor. The inhibitory activity of the compound on luciferase activity was monitored on the Huh-Luc cells, enabling a dose-response curve for each test compound. EC50 values were then calculated, which represent the amount of compound required to decrease the level of detected luciferase activity by 50%, or more specifically, to reduce the ability of the genetically linked HCV replicon RNA to replicate.

Compound | EC50 [nM]
CNC(=O)N[C@H](C(=O)N1CCC[C@H]1c1ncc(C#Cc2ccc(-c3cnc([C@@H]4CCCN4C(=O)[C@@H](NC(=O)NC)C(C)C)[nH]3)cc2)[nH]1)C(C)C [Compound 36] | 0.69
O=C(Cc1cccnc1)N1CCC[C@H]1c1ncc(C#Cc2ccc(-c3cnc([C@@H]4CCCN4C(=O)Cc4cccnc4)[nH]3)cc2)[nH]1 [Compound 2] | 1.5
O=C([C@@H](c1ccccc1)N1CCCCC1)N1CCC[C@H]1c1ncc(C#Cc2ccc(-c3cnc([C@@H]4CCCN4C(=O)[C@@H](c4ccccc4)N4CCCCC4)[nH]3)cc2)[nH]1 [Compound 37] | 0.03
COC(=O)N[C@H](C(=O)N1CCC[C@H]1c1ncc(C#Cc2ccc(-c3cnc([C@@H]4CCCN4C(=O)[C@@H](NC(=O)OC)C(C)C)[nH]3)cc2)[nH]1)C(C)C [Compound 28] | 0.036
O=C(CC1CCCCC1)N1CCC[C@H]1c1ncc(C#Cc2ccc(-c3cnc([C@@H]4CCCN4C(=O)CC4CCCCC4)[nH]3)cc2)[nH]1 [Compound 4] | 130
O=C(Nc1ccccc1)N1CCC[C@H]1c1ncc(C#Cc2ccc(-c3cnc([C@@H]4CCCN4C(=O)Nc4ccccc4)[nH]3)cc2)[nH]1 [Compound 3] | 810
CC(C)[C@@H](C(=O)N1CCC[C@H]1c1ncc(C#Cc2ccc(-c3cnc([C@@H]4CCCN4C(=O)[C@H](C(C)C)N(C)C)[nH]3)cc2)[nH]1)N(C)C [Compound 21] | 36
CC(=O)N[C@@H](C(=O)N1CCC[C@H]1c1ncc(C#Cc2ccc(-c3cnc([C@@H]4CCCN4C(=O)[C@H](NC(C)=O)c4ccccc4)[nH]3)cc2)[nH]1)c1ccccc1 [Compound 32] | < 0.48
